Experimental data published in PMC4986129, “A Peroxidase-linked Spectrophotometric Assay for the Detection of Monoamine Oxidase Inhibitors” (Iranian Journal of Pharmaceutical Research : IJPR, 2016).

Target: T1, MAO-B (Rattus norvegicus, UniProt P19643)
T1 construct: gene Maob
T1 sequence (P19643 2-520): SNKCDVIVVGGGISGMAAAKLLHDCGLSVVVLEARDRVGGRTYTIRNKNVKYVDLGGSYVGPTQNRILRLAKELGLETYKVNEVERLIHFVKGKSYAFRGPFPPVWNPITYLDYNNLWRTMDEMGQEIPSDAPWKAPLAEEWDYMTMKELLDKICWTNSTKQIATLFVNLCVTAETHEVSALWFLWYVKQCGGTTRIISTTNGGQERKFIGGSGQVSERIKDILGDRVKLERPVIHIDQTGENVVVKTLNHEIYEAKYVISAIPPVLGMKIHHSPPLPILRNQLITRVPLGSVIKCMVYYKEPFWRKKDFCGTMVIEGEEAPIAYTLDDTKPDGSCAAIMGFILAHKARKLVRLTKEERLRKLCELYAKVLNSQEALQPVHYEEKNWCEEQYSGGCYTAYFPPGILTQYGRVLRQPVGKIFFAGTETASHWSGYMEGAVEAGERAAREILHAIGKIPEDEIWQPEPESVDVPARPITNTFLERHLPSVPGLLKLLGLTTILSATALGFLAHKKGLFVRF
Test: peroxidase-linked spectrophotometric assay, crude rat liver mitochondria with MAO-A blocked by clorgyline
Format: biochemical

C#CCN(C)Cc1ccccc1 [pargyline]
IC50: 0.0134 ± 0.00016 µM
